Legend:
SHSY5Y cell = assay: Exposure of SHSY5Y neuroblastoma cells to stimulants: marker enzyme expression and extension of neuron projection; assay type: cell-based; conditions: a neuroblastoma from human
Text: The functions of (1) and (2) are different, but share the same properties in terms of extension of neuron projection. Therefore, cellular components necessary for these two intracellular alteration were specified experimentally by means of RNA interference method. As such, it was obtained that the component collection (3) necessary for the alteration from SHSY5Y to (1) are {JAK1, JAK3, ROR, and RET}. On the other hand, the component collection (4) necessary for the alteration from SHSY5Y cells to (2), are {NTRK1, EPHB2, INSR, RDGFRA, ROR and RET}. When comparing and calculation of intersection is done for (3) and (4), the intersection (5) was obtained to read {ROR and RET}. Next, the collection (6) {JAK1 and JAK3} by subtraction of (3)-(5) and the collection (5) were analyzed in terms of an intermolecular interaction, and the existence of a pathway of a molecular signals from (6) to (5) (FIG. 3A) was determined. Furthermore, the collection (7) which was obtained by the subtraction of (4)-(5), and the collection (5) were analyzed in terms of an intermolecular interaction, and the existence of a pathway of molecular signals from (7) to (5) (FIG. 3B) was further determined. The common components and pathway relating to the projection extension by retinoic acid (RA) and Nerve Growth Factor (NGF) are shown in FIG. 4.

SK-BR-3 = conditions: breast cancer cell SK-BR-3; stated as known; cited from earlier work
T-47D cell = conditions: human derived breast cancer, compared with SK-BR-3; cited from earlier work
MCF7 = conditions: breast cancer cells MCF7; cited from earlier work

Molecule | expression of tyrosine hydroxylase (SHSY5Y cell) | extension of neuron projection (SHSY5Y cell) | neuron cell type formed (SHSY5Y cell) | growth inhibition (SK-BR-3) | DXR sensitivity (T-47D cell) | DXR resistance (MCF7)
Nerve Growth Factor: Nerve Growth Factor (NGF), stimulant triggering neurite outgrowth in SHSY5Y cells | tyrosine hydroxylase was expressed | caused extension of neuron projection | forms dopaminergic neuron cells |  |  | 
COc1cccc2c1C(=O)c1c(O)c3c(c(O)c1C2=O)C[C@@](O)(C(=O)CO)C[C@@H]3O[C@H]1C[C@H](N)[C@H](O)[C@H](C)O1 [doxorubicin] |  |  |  | subjected to growth inhibition | same DXR sensitivity as the SK-BR-3 | having DXR resistance

Source: US20100210708A1, “COMPOUND PROFILING METHOD” (CYTOPATHFINDER, INC., priority 2007, published 2010)
